Data from patent publication EP1501514B1, “PROTEIN KINASE MODULATORS AND METHODS OF USE” (Exelixis, Inc., priority 2002, dated 2003).

Target: T1, Chk1 (Homo sapiens, UniProt O14757)
T1 construct: purchased Upstate Biotechnology
T1 sequence (O14757 1-476): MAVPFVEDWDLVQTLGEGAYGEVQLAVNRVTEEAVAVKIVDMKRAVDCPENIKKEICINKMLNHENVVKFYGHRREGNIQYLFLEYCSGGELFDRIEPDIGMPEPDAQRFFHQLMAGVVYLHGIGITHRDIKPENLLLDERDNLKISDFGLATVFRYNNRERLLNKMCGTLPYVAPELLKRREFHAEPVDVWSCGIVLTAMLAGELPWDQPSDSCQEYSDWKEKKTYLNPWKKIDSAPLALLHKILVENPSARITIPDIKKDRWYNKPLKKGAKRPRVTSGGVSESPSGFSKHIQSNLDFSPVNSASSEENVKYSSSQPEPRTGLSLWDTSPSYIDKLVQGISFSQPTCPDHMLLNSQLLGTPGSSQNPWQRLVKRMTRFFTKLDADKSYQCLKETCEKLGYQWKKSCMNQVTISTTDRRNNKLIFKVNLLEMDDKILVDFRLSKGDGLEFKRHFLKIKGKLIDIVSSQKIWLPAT
Experiment: Chk1 assay: incorporation of γ-33P ATP into immobilized myelin basic protein
Type: biochemical
Conditions: Table 11; Chk1 only
Protocol: Chk1 and Chk2 assays were performed by measuring incorporation of γ-^33P ATP into immobilized myelin basic protein (MBP). High binding white 384 well plates (Greiner) were coated with MBP (Sigma #M-1891) by incubation of 60ul/well of 20µg/ml MBP in Tris-buffered saline (TBS; 50mM Tris pH 8.0, 138mM NaCl, 2.7mM KCl) for 24 hours at 4° C. Plates were washed 3X with 100µl TBS. Kinase reactions were carried out in a total volume of 34µl in kinase buffer (5mM Hepes pH 7.6, 15mM NaCl, 0.01% bovine gamma globulin (Sigma #I-5506), 10mM MgCl2, 1mM DTT, 0.02% TritonX-100). Compound dilutions were performed in DMSO and added to assay wells to a final DMSO concentration of 1%. Each data point was measured in duplicate, and at least two duplicate assays were performed for each individual compound determination. Chkl and Chk2 enzymes (Upstate Biotechnology) were added to final concentrations of 10nM (Chkl) or 20nM (Chk2). A mixture of unlabeled ATP and γ-^33P ATP was added to start the reaction (2x10^6 cpm of γ-^33P ATP per well (3000Ci/mmole) and either 10µM or 30µM unlabeled ATP (for Chkl and Chk2 assays respectively). The reaction was carried out for 1 hour at room temperature with shaking. Plates were washed 7x with TBS, followed by the addition of 50µl/well scintillation fluid (Wallac). Plates were read using a Wallac Trilux counter. This is only one format of such assays, various other formats are possible, as known to those skilled in the art.
The above assay procedure can be used to determine the IC50 for inhibition and/or the inhibition constant Ki. The IC50 is defined as the concentration of compound required to reduce the enzyme activity by 50% under the conditions of the assay. […] The Ki for a compound may be determined from the IC50 based on three assumptions. First, only one compound molecule binds to the enzyme and there is no cooperativity. […] Third, the enzymatic rate of the enzyme-inhibitor complex is zero. The rate (i.e., compound concentration) data are fitted to the equation: V = Vmax E0 [I-((E0+I0+Kd)-sqrt(((E0+I0+Kd))^2 -4E0 I0))/(2E0)] [formula]

Compound	IC50 [µM]
NC(=O)c1nc(-c2cccc(Cl)c2)cnc1N [compound 3, 3-amino-6-(3-chlorophenyl)pyrazine-2-carboxamide]	> 10
NC(=O)c1nc(-c2ccccc2Cl)cnc1N [compound 7, 3-amino-6-(2-chlorophenyl)pyrazine-2-carboxamide]	> 10
Nc1ncc(-c2ccccc2)nc1C(=O)NC1CCCC1 [compound 8, 3-amino-N-cyclopentyl-6-phenylpyrazine-2-carboxamide]	> 10
CN(C)C(=O)c1nc(-c2ccccc2)cnc1N [compound 9, 3-amino-N,N-dimethyl-6-phenylpyrazine-2-carboxamide]	1 to 10
Nc1ncc(-c2ccccc2)nc1C(=O)N1CCCC1 [compound 11, 5-phenyl-3-(pyrrolidin-1-ylcarbonyl)pyrazin-2-amine]	> 10
Nc1ncc(-c2ccccc2)nc1C(=O)NCC1CCCO1 (centres unmarked) [compound 13, 3-amino-6-phenyl-N-(tetrahydrofuran-2-ylmethyl)pyrazine-2-carboxamide]	> 10
CCCNC(=O)c1nc(-c2ccccc2)cnc1NCCC [compound 15, 6-phenyl-N-propyl-3-(propylamino)pyrazine-2-carboxamide]	> 10
Cc1ccccc1-c1cnc(N)c(C(N)=O)n1 [compound 16, 3-amino-6-(2-methylphenyl)pyrazine-2-carboxamide]	> 10
Nc1ncc(-c2ccccc2)nc1C(=O)NC1CC1 [compound 20, 3-amino-N-cyclopropyl-6-phenylpyrazine-2-carboxamide]	> 10
NC(=O)c1nc(-c2ccc(F)c(F)c2)cnc1N [compound 21, 3-amino-6-(3,4-difluorophenyl)pyrazine-2-carboxamide]	> 10
CCOc1ccc(-c2cnc(N)c(C(N)=O)n2)cc1 [compound 23, 3-amino-6-[4-(ethyloxy)phenyl]pyrazine-2-carboxamide]	1 to 10
NC(=O)c1nc(-c2ccc3c(c2)OCO3)cnc1N [compound 25, 3-amino-6-(1,3-benzodioxol-5-yl)pyrazine-2-carboxamide]	> 10
NC(=O)c1nc(-c2cccc(OC(F)(F)F)c2)cnc1N [compound 28, 3-amino-6-{3-[(trifluoromethyl)oxy]phenyl}pyrazine-2-carboxamide]	1 to 10
NC(=O)c1cccc(-c2cnc(N)c(C(N)=O)n2)c1 [compound 29, 3-amino-6-[3-(aminocarbonyl)phenyl]pyrazine-2-carboxamide]	1 to 10
CC(=O)Nc1cccc(-c2cnc(N)c(C(N)=O)n2)c1 [compound 30, 6-[3-(acetylamino)phenyl]-3-aminopyrazine-2-carboxamide]	1 to 10
CN(C)c1ccc(-c2cnc(N)c(C(N)=O)n2)cc1 [compound 32, 3-amino-6-[4-(dimethylamino)phenyl]pyrazine-2-carboxamide]	1 to 10
COC(=O)c1cccc(-c2cnc(N)c(C(N)=O)n2)c1 [compound 34, methyl 3-[5-amino-6-(aminocarbonyl)pyrazin-2-yl]benzoate]	1 to 10
NC(=O)c1nc(-c2cc3ccccc3o2)cnc1N [compound 37, 3-amino-6-(1-benzofuran-2-yl)pyrazine-2-carboxamide]	> 10
CNc1ncc(-c2ccccc2)nc1C(N)=O [compound 38, 3-(methylamino)-6-phenylpyrazine-2-carboxamide]	> 10
NC(=O)c1nc(-c2cccc(C(=O)O)c2)cnc1N [compound 42, 3-[5-amino-6-(aminocarbonyl)pyrazin-2-yl]benzoic acid]	> 10
CC(=O)NCCNC(=O)c1nc(-c2ccccc2)cnc1N [compound 47, N-[2-(acetylamino)ethyl]-3-amino-6-phenylpyrazine-2-carboxamide]	> 10

Now from value to compound:

IC50 [µM]	Compound
> 10	Nc1ncc(-c2ccccc2)nc1C(=O)NCCc1ccccc1 [compound 1, 3-amino-6-phenyl-N-(2-phenylethyl)pyrazine-2-carboxamide]
> 10	Nc1ncc(-c2ccccc2)nc1C(=O)NCc1ccccc1 [compound 2, 3-amino-6-phenyl-N-(phenylmethyl)pyrazine-2-carboxamide]
> 10	Nc1ncc(-c2ccccc2)nc1C(=O)N[C@@H]1CCc2ccccc21 [compound 4, 3-amino-N-[(1R)-2,3-dihydro-1H-inden-1-yl]-6-phenylpyrazine-2-carboxamide]
> 10	Nc1ncc(-c2ccccc2)nc1C(=O)NC1Cc2ccccc2C1 [compound 6, 3-amino-N-(2,3-dihydro-1H-inden-2-yl)-6-phenylpyrazine-2-carboxamide]
1 to 10	COc1cccc(-c2cnc(N)c(C(N)=O)n2)c1 [compound 10, 3-amino-6-[3-(methyloxy)phenyl]pyrazine-2-carboxamide]
> 10	Nc1ncc(-c2ccccc2)nc1C(=O)NCC1CC1 [compound 12, 3-amino-N-(cyclopropylmethyl)-6-phenylpyrazine-2-carboxamide]
1 to 10	CNC(=O)c1nc(-c2ccc(F)cc2)cnc1N [compound 22, 3-amino-6-(4-fluorophenyl)-N-methylpyrazine-2-carboxamide]
1 to 10	CCOc1cccc(-c2cnc(N)c(C(N)=O)n2)c1 [compound 24, 3-amino-6-[3-(ethyloxy)phenyl]pyrazine-2-carboxamide]
> 10	NC(=O)c1nc(-c2cccc3ccccc23)cnc1N [compound 26, 3-amino-6-naphthalen-1-ylpyrazine-2-carboxamide]
> 10	NC(=O)c1nc(-c2ccc(-c3ccccc3)cc2)cnc1N [compound 31, 3-amino-6-biphenyl-4-ylpyrazine-2-carboxamide]
1 to 10	Cc1cccc(-c2cnc(N)c(C(N)=O)n2)c1 [compound 33, 3-amino-6-(3-methylphenyl)pyrazine-2-carboxamide]
0.05 to 1	NC(=O)c1nc(-c2cccc(OCc3ccccc3)c2)cnc1N [compound 35, 3-amino-6-{3-[(phenylmethyl)oxy]phenyl}pyrazine-2-carboxamide]
0.05 to 1	NC(=O)c1nc(-c2cccc(O)c2)cnc1N [compound 36, 3-amino-6-(3-hydroxyphenyl)pyrazine-2-carboxamide]
0.05 to 1	NC(=O)c1nc(-c2cccc(-c3ccccc3)c2)cnc1N [compound 41, 3-amino-6-biphenyl-3-ylpyrazine-2-carboxamide]
> 10	NC(=O)c1nc(-c2ccc(OCc3ccccc3)cc2)cnc1N [compound 43, 3-amino-6-{4-[(phenylmethyl)oxy]phenyl}pyrazine-2-carboxamide]
1 to 10	CNC(=O)c1nc(-c2cccc(OCc3ccccc3)c2)cnc1N [compound 44, 3-amino-N-methyl-6-{3-[(phenylmethyl)oxy]phenyl}pyrazine-2-carboxamide]
0.05 to 1	CNC(=O)c1nc(-c2cccc(O)c2)cnc1N [compound 45, 3-amino-6-(3-hydroxyphenyl)-N-methylpyrazine-2-carboxamide]
1 to 10	COCCNC(=O)c1nc(-c2ccccc2)cnc1N [compound 46, 3-amino-N-[2-(methyloxy)ethyl]-6-phenylpyrazine-2-carboxamide]
1 to 10	NNC(=O)c1nc(-c2ccccc2)cnc1N [compound 48, 3-amino-6-phenylpyrazine-2-carbohydrazide]
1 to 10	Nc1ncc(-c2ccccc2)nc1C(=O)NO [compound 49, 3-amino-N-hydroxy-6-phenylpyrazine-2-carboxamide]
1 to 10	CCOc1cccc(-c2cnc(N)c(C(=O)NC)n2)c1 [compound 50, 3-amino-6-[3-(ethyloxy)phenyl]-N-methylpyrazine-2-carboxamide]
1 to 10	CCOc1ccc(-c2cnc(N)c(C(=O)NC)n2)cc1 [compound 52, 3-amino-6-[4-(ethyloxy)phenyl]-N-methylpyrazine-2-carboxamide]
0.05 to 1	CNC(=O)c1nc(-c2cccc(C)c2)cnc1N [compound 53, 3-amino-N-methyl-6-(3-methylphenyl)pyrazine-2-carboxamide]
